Entries after “also recorded” stand apart in the source; their conditions may differ. Like-named read-outs stand apart in the source and are kept apart here.
Assays:
GPRC6A = details: bind in the 7TM domain; ref [3], [4]; cited from earlier work
Text: GPRC6A is a class C G protein-coupled receptor (GPCR) that has been cloned from human, mouse and rat. The receptor was initially deorphanised by fusion of its large N-terminal domain to the heptahelical and C-terminal region of the related goldfish 5.24 receptor [1]. […] These ligands are thought to bind in the N-terminal domain of the receptor [2] in a manner analogous to the binding of L-glutamate to metabotropic glutamate receptors. Small molecules, ...

GLUTag cells [1] = details: endogenous; ref [17] (supplement list); cited from earlier work
Text: (§1) Supplement pone.0146846.s004.docx, table 1 | column: Functional assay

PC-3 cells = details: endogenous; ref [18] (supplement list); cited from earlier work
Text: as §1

mC6A = details: cited from earlier work
Text: as §1

MIN6 cells = assay: Insulin release from MIN6 cells; format: cell-based, murine; details: NPS-2143 10 μM; ^^P < 0.01 vs L-ornithine alone; Fig 6B
Description: MIN6 or βTC-6 cells were seeded in 24-well plates at 170,000 cells per well in DMEM (containing 4.5g/L glucose, 10 mM HEPES, 100 U/ml penicillin, 100 μg/ml streptomycin and 15% de-complemented FBS) and incubated at 37°C / 5% CO2 for 72 h. Cells were then washed with 500 μl PBS and incubated in 500 μl deprivation media (DMEM with zero glucose, 10 mM HEPES, 1 mM Na-pyruvate, 100 U/ml penicillin, 100 μg/ml streptomycin, 15% de-complemented FBS) for 2 h at 37°C. Media was aspirated and after washing with 500 μl PBS, cells were treated with 250 μl of Krebs buffer (250 mM NaCl, 5.9 mM KCl, 1.2 mM MgCl2, 1.3 mM CaCl2, 25 mM HEPES, 0.1% BSA (w/v), and 2 mM or 16.7 mM glucose; pH 7.4) in the presence or absence of test compound. After incubation for 2 h at 37°C, the assay was terminated by placing the plates on ice and supernatants were transferred to a 96-well plate in preparation for insulin ELISA (Alpco) following manufacturer’s instructions. The cell monolayer was washed twice with 500 μl of PBS and then lysed using 250 μl of 1 N NaOH prior to protein measurement by the method of Bradford (1976).
(§2) Concentration-response data were analysed using a three or four parameter logistic function (Motulsky & Christopoulos, 2004) to generate estimates of agonist potency (LogEC50). Data for all HEK293 assays represent the mean ± SEM of at least three independent experiments (except cell impedance, n = 2). For GLP-1 release, the data represent mean ± SEM of three to five independent experiments (except for OCN, wash; n = 2). For insulin release assays, data represent the mean ± SEM of three independent experiments (except for islet studies; n = 2). Insulin release data were normalised to the response to vehicle in either low or high [glucose]. Statistical analysis for GLP-1 release data were performed by one-way ANOVA, followed by Sidak’s multiple comparisons test (treating wash / no wash datasets separately). Statistical analyses for insulin release data were performed by two-way ANOVA (with [glucose] and drug treatment as group variables), followed by Sidak’s multiple comparisons test. Where only high [glucose] groups were evaluated, statistical analysis was by one-way ANOVA followed by Sidak’s multiple comparisons test.

mGPRC6A (mouse GPRC6A) = molecular target: T1, mGPRC6A (mouse GPRC6A) (Mus musculus, UniProt Q8K4Z6); assay: Inositol phosphate (IP-One HTRF) accumulation, FlpIn-TREx-HEK293-mGPRC6A cells; format: cell-based; details: NPS-2143 30 μM; Fig 1C
T1 sequence (Q8K4Z6 21-928): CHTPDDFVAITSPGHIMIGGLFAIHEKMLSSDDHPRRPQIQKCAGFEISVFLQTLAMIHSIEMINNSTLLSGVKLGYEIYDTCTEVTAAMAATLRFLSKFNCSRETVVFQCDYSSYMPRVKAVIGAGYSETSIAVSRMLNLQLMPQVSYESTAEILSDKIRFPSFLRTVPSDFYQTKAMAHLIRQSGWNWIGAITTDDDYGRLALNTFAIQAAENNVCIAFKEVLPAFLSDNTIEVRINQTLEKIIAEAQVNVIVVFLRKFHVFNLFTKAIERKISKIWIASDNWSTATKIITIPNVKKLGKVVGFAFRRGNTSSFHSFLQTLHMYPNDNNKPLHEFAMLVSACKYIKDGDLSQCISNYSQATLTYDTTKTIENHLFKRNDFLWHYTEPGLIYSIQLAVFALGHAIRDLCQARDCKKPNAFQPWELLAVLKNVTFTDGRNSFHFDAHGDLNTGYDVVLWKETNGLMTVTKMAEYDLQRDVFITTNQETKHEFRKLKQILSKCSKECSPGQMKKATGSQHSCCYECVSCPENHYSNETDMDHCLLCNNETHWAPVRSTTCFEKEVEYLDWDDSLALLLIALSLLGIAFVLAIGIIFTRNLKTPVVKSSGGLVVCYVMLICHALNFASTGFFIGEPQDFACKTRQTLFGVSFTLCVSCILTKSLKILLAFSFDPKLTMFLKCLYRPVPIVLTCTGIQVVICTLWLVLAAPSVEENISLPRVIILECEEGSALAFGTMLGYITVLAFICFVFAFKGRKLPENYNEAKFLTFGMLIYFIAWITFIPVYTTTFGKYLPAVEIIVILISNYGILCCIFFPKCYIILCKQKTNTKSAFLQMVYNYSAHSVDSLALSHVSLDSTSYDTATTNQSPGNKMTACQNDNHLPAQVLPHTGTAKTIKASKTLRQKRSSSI
Description: pcDNA 5/FRT/TO constructs were isogenically integrated into a FlpIn-TREx-HEK293 cell line (Life Technologies). FlpIn-TREx-HEK293-mGPRC6A and FlpIn-TREx-HEK293-hGPRC6A cells were then selected using 600 μg/ml hygromycin and 5 μg/ml blasticidin and grown in culture medium consisting of Dulbecco’s Modified Eagle Medium (DMEM), supplemented with 10% (v/v) foetal bovine serum (FBS) at 37°C in 5% CO2 and were sub-cultured in a 1:3 ratio every 3–4 days. Cells were cultured overnight in the presence of 1 μg/ml tetracycline to induce GPRC6A expression. […] 48 h after transfection, cells were selected using 3 μg/ml puromycin and grown as above.
Inositol phosphate (IPX) accumulation experiments were performed using the IP-One HTRF® assay kit (Cisbio, France). Briefly, 24h after transfection with G proteins (as above), 10^5 cells were seeded per well in PDL-coated, 96-well white plates and incubated overnight. Cells were then washed 2 x 2h at 37°C in HBSS buffer (pH 7.2) containing 20 mM HEPES, 3.5 mM NaHCO3, 1 mM CaCl2 and 0.1% (w/v) BSA. Test compounds were then prepared in the kit stimulation buffer containing 2 mM CaCl2; cells were then incubated with 70 μl of drugs for 30 min, after which 15 μl of both IP1-D2 and Ab-Cryp were added to the cells, followed by a 1 h incubation at RT. Plates were read using an Envision plate reader (Perkin Elmer), using an HTRF protocol. Results were calculated from the 665nm / 620nm HTRF ratio (Ratio = A665nm/A620nm x 10^4) and expressed as a percentage of the maximal response obtained.
as §2

GLUTag cells [2] = assay: GLP-1 release from GLUTag cells; format: cell-based, murine; details: NPS-2143 10 μM, 30 min pre-treatment; ^P < 0.05 vs L-ornithine alone; Fig 6A
Description: Intestinal L-cell model GLUTag cells were seeded in 24-well plates coated with Matrigel and incubated for 6 days in DMEM with 10% FBS, 100 U/ml penicillin, 100 μg/ml streptomycin at 37°C in 5% CO2 and grown for 4–5 days. Where indicated, cells were washed (1 or 2 x 1h) with Krebs-HEPES buffer (20 mM HEPES, 118 mM NaCl, 4.7 mM KCl, 1.2 mM MgSO4, 5 mM NaHCO3, 1.2 mM KH2PO4, 2.5 mM CaCl2, 5.5 mM glucose, 0.2% BSA (w/v), pH 7.2) containing vildagliptin (300 μM) prior to addition of test compounds in the same buffer. After 2 h incubation at 37°C in 5% CO2, the supernatant was recovered and centrifuged at 500 rpm for 5 min. Where used, NPS-2143 pre-treatment was for 30 min.
GLP-1 content in the cell supernatant was measured by ELISA (EGLP-35K, Millipore), according to manufacturer’s instructions after overnight incubation of 15 μl supernatant in 100 μl Krebs-HEPES buffer at 4°C. After 5 x washes, 200 μl of detection conjugate was added and incubated for 2 h at RT. After 3 x washes the reaction was developed with 200 μl of diluted substrate (1:200) for 20 min and terminated by addition of 50 μl stop solution. After 5 min, fluorescence was then measured using 355 nm excitation and 460 nm emission, transforming the obtained signal into pmol GLP-1/well/ml and corrected for GLUTag cell protein content as determined using the method of Bradford (1976).
as §2

| SMILES | modulation of GPRC6A (GPRC6A) | antagonism, Ca^2+i (GLUTag cells [1]) | antagonism, GLP-1 secretion (GLUTag cells [1]) | pERK1/2 response (PC-3 cells) | IP-One HTRF response (mC6A; ref [13] (supplement list)) | cAMP response (mC6A; ref [13] (supplement list)) | pERK response (mC6A; ref [13] (supplement list)) | cAMP response (mC6A; ref [18] (supplement list)) | pERK1/2 response (mC6A; ref [18] (supplement list)) | reversal of L-ornithine-stimulated insulin secretion (MIN6 cells) | inhibition of L-ornithine-stimulated inositol phosphate accumulation (mGPRC6A (mouse GPRC6A)) | reversal of L-ornithine-stimulated GLP-1 release (GLUTag cells [2]) |
| --- | --- | --- | --- | --- | --- | --- | --- | --- | --- | --- | --- | --- |
| C[C@@H](NCc1cc2ccccc2[nH]1)c1cccc2ccccc12 [calindol] | negative allosteric modulators | antagonist | antagonist |  |  |  |  |  |  |  |  |  |
| C[C@]12CC[C@H]3[C@@H](CCC4=CC(=O)CC[C@@]43C)[C@@H]1CC[C@@H]2O [Testosterone] |  |  |  | pERK1/2 – response to Testosterone, L-Arg | No response | no response | No specific response | cAMP – response to Testosterone, L-Arg pERK1/2 – response to Testosterone | cAMP – response to Testosterone, L-Arg pERK1/2 – response to Testosterone |  |  |  |
| CC(C)(Cc1ccc2ccccc2c1)NC[C@@H](O)COc1cccc(Cl)c1C#N [NPS-2143] | negative allosteric modulators |  |  |  |  |  |  |  |  | fully reversed | inositol phosphate accumulation in response to L-ornithine was sensitive to application of the GPRC6A antagonist, NPS-2143; also recorded: can be inhibited with the antagonist | fully reversed; also recorded: significantly reversed; also recorded: NPS-2143-sensitive |

From PMC4718634, “Murine GPRC6A Mediates Cellular Responses to L-Amino Acids, but Not Osteocalcin Variants” (PLoS ONE, 2016)
